From patent US20110105326A1, “Method for Enhancing the Rainfastness of Glyphosate” (BASF SE, priority 2008, published 2011)

Assays:
Assay type in all cases: in vivo
[1] = system: Brachiaria decumbens (BRADE); assay: herbicidal action with/without simulated rainfall after treatment, Brachiaria decumbens; design: key: % damage vs untreated control; 0 = no damage, 100 = complete destruction
Summary of the method: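 Glyphosate alone, component B alone or their mixture sprayed at 200 l/ha on weeds at the 6–8 leaf stage. Simulated rain of 20 mm applied 15 min, 30 min, 1, 2, 3, 4 or 6 h after treatment. Damage scored 0–100% against untreated controls.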

[2] = system: Bidens pilosa (BIDPI); assay: herbicidal action with/without simulated rainfall after treatment, Bidens pilosa; conditions: Example 9, flumioxazin 60 g/ha, glyphosate 1080 g/ha, 0.5% v/v Dash in Flumioxazin and mixture
Description: (§1) The enhancement of the rainfastness of glyphosate was determined via the herbicidal activity of the mixture comprising glyphosate and the respective rainfastness enhancing herbicidal component B as well as of the single herbicidal components in relation to simulated rainfall at different time intervals.
(§2) The evaluation of the damage caused by the method and the compositions the according to the present invention and the single herbicidal components was carried out using a scale from 0 to 100%, compared to the untreated control plots. Here, 0 means no damage and 100 means complete destruction of the plants of a respective weed or crop species.
(§3) The application was performed with a fixed spayer system with air pressurization and with a tank spray volume of two liters. The speed of the spray device over the plants was adjusted for a spray volume of 200 I/ha. The spray device was a spray barr with four nozzles from the type Teejet XR 11002VS with a space of 50 cm between each nozzle.
(§4) The application was performed at a weed stage of 6 to 8 leaves. After the application of the formulated herbicides the leaves were washed through rain of 20 mm using a fixed rain simulator system at following time interval: 15 min, 30 min, 1, 2, 3, 4 and 6 hours after treatment.

[3] = system: Ipomoea grandifolia (IPOGR); assay: herbicidal action with/without simulated rainfall after treatment, Ipomoea grandifolia; conditions: Example 10, flumioxazin 60 g/ha, glyphosate 1080 g/ha, 0.5% v/v Dash in Flumioxazin and mixture
Description: as §1, §2, §3, §4

[4] = simulated rainfall 15 min after treatment, 1 DAA
[5] = simulated rainfall 15 min after treatment, 2 DAA
[6] = simulated rainfall 15 min after treatment, 3 DAA
[7] = simulated rainfall 15 min after treatment, 7 DAA
[8] = simulated rainfall 2 hours after treatment, 1 DAA
[9] = simulated rainfall 2 hours after treatment, 2 DAA
[10] = simulated rainfall 2 hours after treatment, 3 DAA
[11] = simulated rainfall 2 hours after treatment, 7 DAA
[12] = without simulated rainfall, 1 DAA
[13] = without simulated rainfall, 2 DAA
[14] = without simulated rainfall, 3 DAA
[15] = without simulated rainfall, 7 DAA

C#CCN1C(=O)COc2cc(F)c(N3C(=O)C4=C(CCCC4)C3=O)cc21 [Flumioxazin, flumioxazin]
herbicidal action against BRADE ([1]; Example 11, simulated rainfall 15 min after treatment, 1 DAA, flumioxazin 60 g/ha, glyphosate 1080 g/ha, 0.5% v/v Dash in Flumioxazin and mixture): 28.33% | herbicidal action against BRADE ([1]; Example 11, simulated rainfall 15 min after treatment, 2 DAA, flumioxazin 60 g/ha, glyphosate 1080 g/ha, 0.5% v/v Dash in Flumioxazin and mixture): 64.66% | herbicidal action against BRADE ([1]; Example 11, simulated rainfall 15 min after treatment, 3 DAA, flumioxazin 60 g/ha, glyphosate 1080 g/ha, 0.5% v/v Dash in Flumioxazin and mixture): 80% | herbicidal action against BRADE ([1]; Example 11, simulated rainfall 15 min after treatment, 7 DAA, flumioxazin 60 g/ha, glyphosate 1080 g/ha, 0.5% v/v Dash in Flumioxazin and mixture): 82.33% | herbicidal action against BRADE ([1]; Example 11, simulated rainfall 30 min after treatment, 1 DAA, flumioxazin 60 g/ha, glyphosate 1080 g/ha, 0.5% v/v Dash in Flumioxazin and mixture): 22.33% | herbicidal action against BRADE ([1]; Example 11, simulated rainfall 30 min after treatment, 2 DAA, flumioxazin 60 g/ha, glyphosate 1080 g/ha, 0.5% v/v Dash in Flumioxazin and mixture): 53.66% | herbicidal action against BRADE ([1]; Example 11, simulated rainfall 30 min after treatment, 3 DAA, flumioxazin 60 g/ha, glyphosate 1080 g/ha, 0.5% v/v Dash in Flumioxazin and mixture): 76% | herbicidal action against BRADE ([1]; Example 11, simulated rainfall 30 min after treatment, 7 DAA, flumioxazin 60 g/ha, glyphosate 1080 g/ha, 0.5% v/v Dash in Flumioxazin and mixture): 76.66% | herbicidal action against BRADE ([1]; Example 11, without simulated rainfall, 1 DAA, flumioxazin 60 g/ha, glyphosate 1080 g/ha, 0.5% v/v Dash in Flumioxazin and mixture): 14.66% | herbicidal action against BRADE ([1]; Example 11, without simulated rainfall, 2 DAA, flumioxazin 60 g/ha, glyphosate 1080 g/ha, 0.5% v/v Dash in Flumioxazin and mixture): 41% | herbicidal action against BRADE ([1]; Example 11, without simulated rainfall, 3 DAA, flumioxazin 60 g/ha, glyphosate 1080 g/ha, 0.5% v/v Dash in Flumioxazin and mixture): 42.66% | herbicidal action against BRADE ([1]; Example 11, without simulated rainfall, 7 DAA, flumioxazin 60 g/ha, glyphosate 1080 g/ha, 0.5% v/v Dash in Flumioxazin and mixture): 51% | herbicidal action against BRADE ([1]; simulated rainfall 2 hours after treatment, 1 DAA, Example 11.4): 16.33 | herbicidal action against BRADE ([1]; simulated rainfall 2 hours after treatment, 2 DAA, Example 11.4): 50.66 | herbicidal action against BRADE ([1]; simulated rainfall 2 hours after treatment, 3 DAA, Example 11.4): 65 | herbicidal action against BRADE ([1]; simulated rainfall 2 hours after treatment, 7 DAA, Example 11.4): 80 | herbicidal action against BRADE ([1]; simulated rainfall 6 hours after treatment, 1 DAA, Example 11.5): 21.66 | herbicidal action against BRADE ([1]; simulated rainfall 6 hours after treatment, 2 DAA, Example 11.5): 44.33 | herbicidal action against BRADE ([1]; simulated rainfall 6 hours after treatment, 3 DAA, Example 11.5): 63.33 | herbicidal action against BRADE ([1]; simulated rainfall 6 hours after treatment, 7 DAA, Example 11.5): 65 | herbicidal action against BIDPI [2, 4]: 51% | herbicidal action against BIDPI [2, 5]: 59.66% | herbicidal action against BIDPI [2, 6]: 64% | herbicidal action against BIDPI [2, 7]: 69% | herbicidal action against BIDPI ([2]; simulated rainfall 30 min after treatment, 1 DAA): 63.66% | herbicidal action against BIDPI ([2]; simulated rainfall 30 min after treatment, 2 DAA): 63% | herbicidal action against BIDPI ([2]; simulated rainfall 30 min after treatment, 3 DAA): 82% | herbicidal action against BIDPI ([2]; simulated rainfall 30 min after treatment, 7 DAA): 78.33% | herbicidal action against BIDPI [2, 8]: 72.33% | herbicidal action against BIDPI [2, 9]: 86.66% | herbicidal action against BIDPI [2, 10]: 91.66% | herbicidal action against BIDPI [2, 11]: 96.66% | herbicidal action against BIDPI ([2]; simulated rainfall 6 hours after treatment, 1 DAA): 66.66% | herbicidal action against BIDPI ([2]; simulated rainfall 6 hours after treatment, 2 DAA): 84% | herbicidal action against BIDPI ([2]; simulated rainfall 6 hours after treatment, 3 DAA): 91.33% | herbicidal action against BIDPI ([2]; simulated rainfall 6 hours after treatment, 7 DAA): 92.66% | herbicidal action against BIDPI [2, 12]: 80% | herbicidal action against BIDPI [2, 13]: 92% | herbicidal action against BIDPI [2, 14]: 98% | herbicidal action against BIDPI [2, 15]: 98.66% | herbicidal action against IPOGR [3, 4]: 20.33% | herbicidal action against IPOGR [3, 5]: 75% | herbicidal action against IPOGR [3, 6]: 82.33% | herbicidal action against IPOGR [3, 7]: 98.33% | herbicidal action against IPOGR ([3]; simulated rainfall 15 min after treatment, 14 DAA): 90% | herbicidal action against IPOGR [3, 8]: 24.66% | herbicidal action against IPOGR [3, 9]: 80% | herbicidal action against IPOGR [3, 10]: 94.33% | herbicidal action against IPOGR [3, 11]: 99.66% | herbicidal action against IPOGR ([3]; simulated rainfall 2 hours after treatment, 14 DAA): 100% | herbicidal action against IPOGR [3, 12]: 19.33% | herbicidal action against IPOGR [3, 13]: 93.66% | herbicidal action against IPOGR [3, 14]: 98% | herbicidal action against IPOGR [3, 15]: 98.66% | herbicidal action against IPOGR ([3]; without simulated rainfall, 14 DAA): 97.66%
